Experimental data from patent US11964954B1 (KING FAISAL UNIVERSITY, priority 2023, dated 2024).

Key:
[1] = system: human prostate cancer cells (PC3); experiment: Cytotoxicity by SRB assay, PC3 cells; format: cell-based; details: for IC50: mean±SD
Experimental: (§1) The human prostate cancer cells (PC3) and human osteosarcoma cells (MG-63) were obtained from Nawah Scientific Inc. (Mokatam, Cairo, Egypt) and cultured in DMEM (Dulbecco's modified eagle's medium), Gibco, USA, supplemented with fetal bovine serum (FBS) at a concentration of 10% and 100 U/mL of penicillin and streptomycin (PS). The cells were incubated at 37° C. in a humidified environment that contained 5% CO2.
(§2) Cells were seeded in 96-well plates as aliquots of 100 μL cell suspension and incubated in a complete media for 24 h. Afterward, cells were treated with N′-[(2-chlorobenzoyl)oxy]-1,3-benzothiazole-2-carboximidamide at diverse concentrations ranging from 0.01 μM to 100 μM for 72 h. Then, cells were fixed at 4° C. for one hour with 150 μL of 10% trichloroacetic acid (TCA). After washing the cells five times with distilled water, 70 μL of sulforhodamine (SRB) solution (0.4% w/v) was added and incubated for 10 min at room temperature in a dark place. Cells were washed with 1% acetic acid three times and allowed to air-dry. Then, 150 μL of Tris pH 10.5 (10 mM) was added, and the absorbance was measured at 540 nm using a BMG LABTECH®-FLUOstar Omega microplate reader (Ortenberg, Germany). Half maximal inhibitory concentrations (IC50) values were calculated for each experiment using GraphPad Prism 6 software. IC50 values were reported as mean±SD.
(§3) The inhibition was calculated using the following equation: Inhibition %=100-Average Viability

[2] = system: Bacillus cereus, Staphylococcus aureus, Pseudomonas aeruginosa, Escherichia coli, Aspergillus flavus, Chrysosporium keratinophilum; experiment: Agar plate disc-diffusion antimicrobial screening; format: cell-based; details: 10 μL of 10 mg/mL in DMSO per disc, result in words only
Experimental: The agar plate disc-diffusion method was applied. Sterilized filter papers (6 mm in diameter) were wetted with 10 μL of a solution of each compound to be tested, containing 10 mg/mL in DMSO, and the discs were allowed to air dry. The discs were then placed onto the surface of agar plates (nutrient agar for bacteria and Sabouraud's dextrose agar for fungi) and seeded with the test organism. Each plate contained 15 mL of the agar medium, previously seeded with 0.2 mL of the broth culture of each organism pre-grown for 18 h. The plates were incubated at 37° C. for 48 h, and 72 h for fungi. The inhibition zones were measured in mm. Discs impregnated with DMSO were used as a control, and its inhibition zone was subtracted from the tested compound actual inhibition zone.
In particular, the present N′-[(2-chlorobenzoyl)oxy]-1,3-benzothiazole-2-carboximidamide was screened against gram positive bacteria, namely Bacillus cereus and Staphylococcus aureus, and gram-negative bacterial strains, namely Pseudomonas aeruginosa and Escherichia coli, while the antifungal activity was screened against Aspergillus flavus and Chrysosporium keratinophilum.

[3] = system: human osteosarcoma cells (MG-63); experiment: Cytotoxicity by SRB assay, MG-63 cells; format: cell-based; details: for IC50: mean±SD
Experimental: as §1, §2, §3

Compound | inhibition at 10 µg/mL ([1]; Homo sapiens, PC-3, 72 h, Prostate cancer (PC-3), 10 μg/ml, 72 h) | inhibition at 100 µg/mL ([1]; Homo sapiens, PC-3, 72 h, Prostate cancer (PC-3), 100 μg/ml, 72 h) | IC50 ([1]; Homo sapiens, PC-3, 72 h) | IC50 ([1]; PC-3, 72 h) | Inhibition % ([1]; Prostate cancer (PC-3), 10 μg/ml, 72 h, listed as N'-[(2-chlorobenzoyl)oxy]-1,3-benzothiazole-2-carboximidamide) | antimicrobial activity [2] | melting point | inhibition at 10 µg/mL ([3]; Homo sapiens, MG-63, 72 h, Osteosarcoma (MG-63), 10 μg/ml, 72 h) | inhibition at 100 µg/mL ([3]; Homo sapiens, MG-63, 72 h, Osteosarcoma (MG-63), 100 μg/ml, 72 h) | IC50 ([3]; Homo sapiens, MG-63, 72 h) | IC50 ([3]; MG-63, 72 h) | Inhibition % ([3]; Osteosarcoma (MG-63), 10 μg/ml, 72 h, listed as N'-[(2-chlorobenzoyl)oxy]-1,3-benzothiazole-2-carboximidamide)
N/C(Cc1nc2ccccc2s1)=N\OC(=O)c1ccccc1Cl | 95% | 96% | < 4 µM | 2.69 ± 0.03 µM | 95.61% | excellent antimicrobial activities | 110 to 112 °C | 95% | 91.3% | < 4 µM | 3.45 µM | 90.17%
COc1cccc2c1C(=O)c1c(O)c3c(c(O)c1C2=O)C[C@@](O)(C(=O)CO)C[C@@H]3O[C@H]1C[C@H](N)[C@H](O)[C@H](C)O1 [DOX, Doxorubicin, reference compound] | – | – | 7.6 ± 0.45 µM | – | – | – | – | – | – | 9.4 ± 1.1 µM | – | –
